Test results published in patent publication US20100041089A1, “IMPROVED METHOD FOR DETECTING CHEMICAL […]” (priority 2006, published 2010).

Tested on: yeast genes (expressed mRNA)
Assay: DNA chip measurement of expressed mRNA of yeast genes after culture with a toxic chemical substance
Format: cell-based, Saccharomyces cerevisiae S288C
Conditions: for level of expressed mRNA in the presence of chemical substance / level in the absence of chemical substance: cultured two hours with the chemical substance; for The level of expressed mRNA in the presence of chemical substance/The level of expressed mRNA in the absence of chemical substance: cultured two hours with substance
Experimental: Yeast (Saccharomyces cerevisiae S288C (a SUC2mal mel gap2 CUP1)) were cultured at 25° C. on YPD medium (yeast extract 1%, polypeptone 2%, glucose 2%). One of toxic chemical substances was added to the cell at logarithmic growth phase, and the cell was further cultured for two hours. Cell was cultured without any chemical substance in the same condition, and was used as a control. Concentrations of the chemical substances were defined to inhibit the growth of the yeast but not lead to death.
After the completion of cultivation, the culture was centrifuged to collect the cells. To the cells, sodium acetate buffer (50 mM sodium acetate, 10 mM EDTA, 1% SDS) was added, and the mixture was shaken at 65° C. for five minutes, followed by returning to room temperature, and obtaining the supernatant, which procedure was repeated two times. To the supernatant, ½ amount of a solution of phenol/chloroform (1:1) was added, and the mixture was centrifuged to give a supernatant, an equal amount of chloroform was added, and the mixture was centrifuged to give a supernatant. To the supernatant, an equal amount of isopropanol containing 0.3 M sodium acetate was added, and the mixture was allowed to stand at room temperature for 30 minutes, after which the mixture was centrifuged to give sediment of the whole RNAs. Seventy % ethanol was added to the sediment, and the mixture was again centrifuged to give sediment, which was then dried and dissolved in water. mRNA was isolated from the whole RNAs as followings. In view of the fact that a poly A chain is attached to the 3′ terminus of mRNA, a polynucleotide having a poly T structure which was immobilized on the surface of latex beads was used to trap the mRNA, and then the mRNA was washed and eluted with spine column (Oligotex-dT30<Super>mRNA Purification Kit, Takara). Reverse transcription of the mRNA was conducted with a reverse transcriptase (Super Script II Reverse Transcriptase; catalogue No. 18064-014, GibcoBRL) using fluorescence-labeled nucleotides to give cDNAs that were introduced with Cy3-dUTP or Cy5-dUTP during the reverse transcription.
The labeled cDNAs were dissolved in TE buffer (10 mM Tris-HCl/1 mM EDTA, pH 8.0), and the solution was dropped on the DNA chip containing the whole genes of yeast (DNA Chip Research Inc. Japan) so that the cDNAs were hybridized on the DNA chip at 65° C. for over 12 hours. The fluoresces intensity of the DNA chip was read with a scanner, and the ratio relative to the fluorescence intensity resulting from the absence of chemical substance was estimated as the following, which is shown in Tables 1 to 9.
In the Tables, “Intensity” indicated in the rightmost column is a value of the level of expressed mRNA of each gene in control cells as divided by the average level of the expressions of the whole genes. A gene of which mRNA level is lower in control, and is higher in cases of addition of chemical substance, is especially useful in the detection of toxic substances.
Here, when a ratio of an amount of mRNA expressed in the presence of the chemical substance to an amount of mRNA expressed in the absence of the chemical substance is two or more, then it is considered significant.

Cl[C@H]1[C@H](Cl)[C@@H](Cl)[C@@H](Cl)[C@H](Cl)[C@H]1Cl [(7), γ-Hexachlorocyclohexane]
The level of expressed mRNA in the presence of chemical substance/The level of expressed mRNA in the absence of chemical substance, yeast gene YBR036C (gene YBR036C, Metabolism protein genes, DNA chip fluorescence ratio): 1.3
The level of expressed mRNA in the presence of chemical substance/The level of expressed mRNA in the absence of chemical substance, yeast gene YBR298C (gene YBR298C, Metabolism protein genes, DNA chip fluorescence ratio): 1.7
The level of expressed mRNA in the presence of chemical substance/The level of expressed mRNA in the absence of chemical substance, yeast gene YDL067C (gene YDL067C (mitochondria-located protein gene), yeast cultured two hours with chemical substance, DNA chip fluorescence ratio to control): 0.8
The level of expressed mRNA in the presence of chemical substance/The level of expressed mRNA in the absence of chemical substance, yeast gene YDL078C (gene YDL078C, Metabolism protein genes, DNA chip fluorescence ratio): 1.7
The level of expressed mRNA in the presence of chemical substance/The level of expressed mRNA in the absence of chemical substance, yeast gene YDL215C (gene YDL215C, Metabolism protein genes, DNA chip fluorescence ratio): 1.9
The level of expressed mRNA in the presence of chemical substance/The level of expressed mRNA in the absence of chemical substance, yeast gene YDR079W (gene YDR079W (mitochondria-located protein gene), yeast cultured two hours with chemical substance, DNA chip fluorescence ratio to control): 1.3
The level of expressed mRNA in the presence of chemical substance/The level of expressed mRNA in the absence of chemical substance, yeast gene YDR297W (gene YDR297W, Metabolism protein genes, DNA chip fluorescence ratio): 0.6
The level of expressed mRNA in the presence of chemical substance/The level of expressed mRNA in the absence of chemical substance, yeast gene YDR387C (gene YDR387C, Metabolism protein genes, DNA chip fluorescence ratio): 1.3
The level of expressed mRNA in the presence of chemical substance/The level of expressed mRNA in the absence of chemical substance, yeast gene YGL035C (gene YGL035C, Metabolism protein genes, DNA chip fluorescence ratio): 1.2
The level of expressed mRNA in the presence of chemical substance/The level of expressed mRNA in the absence of chemical substance, yeast gene YGR062C (gene YGR062C (mitochondria-located protein gene), yeast cultured two hours with chemical substance, DNA chip fluorescence ratio to control): 1.3
The level of expressed mRNA in the presence of chemical substance/The level of expressed mRNA in the absence of chemical substance, yeast gene YGR287C (gene YGR287C, Metabolism protein genes, DNA chip fluorescence ratio): 2.2
The level of expressed mRNA in the presence of chemical substance/The level of expressed mRNA in the absence of chemical substance, yeast gene YJL070C (gene YJL070C, Metabolism protein genes, DNA chip fluorescence ratio): 1.4
The level of expressed mRNA in the presence of chemical substance/The level of expressed mRNA in the absence of chemical substance, yeast gene YJL096W (gene YJL096W (mitochondria-located protein gene), yeast cultured two hours with chemical substance, DNA chip fluorescence ratio to control): 1.7
The level of expressed mRNA in the presence of chemical substance/The level of expressed mRNA in the absence of chemical substance, yeast gene YJL180C (gene YJL180C (mitochondria-located protein gene), yeast cultured two hours with chemical substance, DNA chip fluorescence ratio to control): 1.6
The level of expressed mRNA in the presence of chemical substance/The level of expressed mRNA in the absence of chemical substance, yeast gene YKR009C (gene YKR009C, Metabolism protein genes, DNA chip fluorescence ratio): 1.0
The level of expressed mRNA in the presence of chemical substance/The level of expressed mRNA in the absence of chemical substance, yeast gene YLR295C (gene YLR295C (mitochondria-located protein gene), yeast cultured two hours with chemical substance, DNA chip fluorescence ratio to control): 1.1
The level of expressed mRNA in the presence of chemical substance/The level of expressed mRNA in the absence of chemical substance, yeast gene YLR351C (gene YLR351C, Metabolism protein genes, DNA chip fluorescence ratio): 1.4
The level of expressed mRNA in the presence of chemical substance/The level of expressed mRNA in the absence of chemical substance, yeast gene YLR375W (gene YLR375W, Metabolism protein genes, DNA chip fluorescence ratio): 0.9
The level of expressed mRNA in the presence of chemical substance/The level of expressed mRNA in the absence of chemical substance, yeast gene YMR023C (gene YMR023C (mitochondria-located protein gene), yeast cultured two hours with chemical substance, DNA chip fluorescence ratio to control): 1.9
The level of expressed mRNA in the presence of chemical substance/The level of expressed mRNA in the absence of chemical substance, yeast gene YMR267W (gene YMR267W (mitochondria-located protein gene), yeast cultured two hours with chemical substance, DNA chip fluorescence ratio to control): 1.2
The level of expressed mRNA in the presence of chemical substance/The level of expressed mRNA in the absence of chemical substance, yeast gene YMR267W (gene YMR267W, Metabolism protein genes, DNA chip fluorescence ratio): 1.2
The level of expressed mRNA in the presence of chemical substance/The level of expressed mRNA in the absence of chemical substance, yeast gene YMR278W (gene YMR278W, Metabolism protein genes, DNA chip fluorescence ratio): 1.8
The level of expressed mRNA in the presence of chemical substance/The level of expressed mRNA in the absence of chemical substance, yeast gene YMR293C (gene YMR293C, Metabolism protein genes, DNA chip fluorescence ratio): 1.2
The level of expressed mRNA in the presence of chemical substance/The level of expressed mRNA in the absence of chemical substance, yeast gene YNL073W (gene YNL073W (mitochondria-located protein gene), yeast cultured two hours with chemical substance, DNA chip fluorescence ratio to control): 1.1
The level of expressed mRNA in the presence of chemical substance/The level of expressed mRNA in the absence of chemical substance, yeast gene YNR072W (gene YNR072W, Metabolism protein genes, DNA chip fluorescence ratio): 1.5
The level of expressed mRNA in the presence of chemical substance/The level of expressed mRNA in the absence of chemical substance, yeast gene YOL096C (gene YOL096C, Metabolism protein genes, DNA chip fluorescence ratio): 1.7
The level of expressed mRNA in the presence of chemical substance/The level of expressed mRNA in the absence of chemical substance, yeast gene YOR180C (gene YOR180C, Metabolism protein genes, DNA chip fluorescence ratio): 0.8
The level of expressed mRNA in the presence of chemical substance/The level of expressed mRNA in the absence of chemical substance, yeast gene YOR316C (gene YOR316C (mitochondria-located protein gene), yeast cultured two hours with chemical substance, DNA chip fluorescence ratio to control): 1.4
The level of expressed mRNA in the presence of chemical substance/The level of expressed mRNA in the absence of chemical substance, yeast gene YOR363C (gene YOR363C, Metabolism protein genes, DNA chip fluorescence ratio): 0.7
The level of expressed mRNA in the presence of chemical substance/The level of expressed mRNA in the absence of chemical substance, yeast gene YPL040C (gene YPL040C (mitochondria-located protein gene), yeast cultured two hours with chemical substance, DNA chip fluorescence ratio to control): 0.8
The level of expressed mRNA in the presence of chemical substance/The level of expressed mRNA in the absence of chemical substance, yeast gene YPL134C (gene YPL134C (mitochondria-located protein gene), yeast cultured two hours with chemical substance, DNA chip fluorescence ratio to control): 1.2
The level of expressed mRNA in the presence of chemical substance/The level of expressed mRNA in the absence of chemical substance, yeast gene YPR184W (gene YPR184W, Metabolism protein genes, DNA chip fluorescence ratio): 1.3
level of expressed mRNA in the presence of chemical substance / level in the absence of chemical substance (yeast gene YAL018C): 1.0
The level of expressed mRNA in the presence of chemical substance/The level of expressed mRNA in the absence of chemical substance (yeast gene YAL053W): 0.7
level of expressed mRNA in the presence of chemical substance / level in the absence of chemical substance (yeast gene YAR047C): 1.2
level of expressed mRNA in the presence of chemical substance / level in the absence of chemical substance (yeast gene YAR064W): 1.1
level of expressed mRNA in the presence of chemical substance / level in the absence of chemical substance (yeast gene YBL044W): 1.1
The level of expressed mRNA in the presence of chemical substance/The level of expressed mRNA in the absence of chemical substance (yeast gene YBL048W): 1.9
The level of expressed mRNA in the presence of chemical substance/The level of expressed mRNA in the absence of chemical substance (yeast gene YBL107C): 2.1
level of expressed mRNA in the presence of chemical substance / level in the absence of chemical substance (yeast gene YBR012C): 1.5
level of expressed mRNA in the presence of chemical substance / level in the absence of chemical substance (yeast gene YBR066C): 1.3
level of expressed mRNA in the presence of chemical substance / level in the absence of chemical substance (yeast gene YBR124W): 1.1
level of expressed mRNA in the presence of chemical substance / level in the absence of chemical substance (yeast gene YBR162C): 0.3
level of expressed mRNA in the presence of chemical substance / level in the absence of chemical substance (yeast gene YBR287W): 1.1
level of expressed mRNA in the presence of chemical substance / level in the absence of chemical substance (yeast gene YCL056C): 1.6
level of expressed mRNA in the presence of chemical substance / level in the absence of chemical substance (yeast gene YCR007C): 2.0
level of expressed mRNA in the presence of chemical substance / level in the absence of chemical substance (yeast gene YDL046W): 1.2
The level of expressed mRNA in the presence of chemical substance/The level of expressed mRNA in the absence of chemical substance (yeast gene YDL072C): 1.8
The level of expressed mRNA in the presence of chemical substance/The level of expressed mRNA in the absence of chemical substance (yeast gene YDL204W): 3.2
The level of expressed mRNA in the presence of chemical substance/The level of expressed mRNA in the absence of chemical substance (yeast gene YDL222C): 1.0
level of expressed mRNA in the presence of chemical substance / level in the absence of chemical substance (yeast gene YDR090C): 1.5
level of expressed mRNA in the presence of chemical substance / level in the absence of chemical substance (yeast gene YDR128W): 0.8
